Reference: ChEMBL document CHEMBL4334438, “Discovery of novel glycogen synthase kinase-3α inhibitors: Structure-based virtual screening, preliminary SAR and biological evaluation for treatment of acute myeloid leukemia” (Eur J Med Chem, 2019)

Legend:
[1] = target: Tyrosine-protein kinase ABL2 (Homo sapiens) (UniProt P42684); test: Inhibition of human Arg (38 to end residues) assessed as residual activity at 1 uM using EAIYAAPFAKKK as substrate incubated for 40 mins in presence of [gamma-33ATP] by scintillation counting based radiometry assay relative to control
Tyrosine-protein kinase ABL2 (Homo sapiens), sequence (P42684 whole entry): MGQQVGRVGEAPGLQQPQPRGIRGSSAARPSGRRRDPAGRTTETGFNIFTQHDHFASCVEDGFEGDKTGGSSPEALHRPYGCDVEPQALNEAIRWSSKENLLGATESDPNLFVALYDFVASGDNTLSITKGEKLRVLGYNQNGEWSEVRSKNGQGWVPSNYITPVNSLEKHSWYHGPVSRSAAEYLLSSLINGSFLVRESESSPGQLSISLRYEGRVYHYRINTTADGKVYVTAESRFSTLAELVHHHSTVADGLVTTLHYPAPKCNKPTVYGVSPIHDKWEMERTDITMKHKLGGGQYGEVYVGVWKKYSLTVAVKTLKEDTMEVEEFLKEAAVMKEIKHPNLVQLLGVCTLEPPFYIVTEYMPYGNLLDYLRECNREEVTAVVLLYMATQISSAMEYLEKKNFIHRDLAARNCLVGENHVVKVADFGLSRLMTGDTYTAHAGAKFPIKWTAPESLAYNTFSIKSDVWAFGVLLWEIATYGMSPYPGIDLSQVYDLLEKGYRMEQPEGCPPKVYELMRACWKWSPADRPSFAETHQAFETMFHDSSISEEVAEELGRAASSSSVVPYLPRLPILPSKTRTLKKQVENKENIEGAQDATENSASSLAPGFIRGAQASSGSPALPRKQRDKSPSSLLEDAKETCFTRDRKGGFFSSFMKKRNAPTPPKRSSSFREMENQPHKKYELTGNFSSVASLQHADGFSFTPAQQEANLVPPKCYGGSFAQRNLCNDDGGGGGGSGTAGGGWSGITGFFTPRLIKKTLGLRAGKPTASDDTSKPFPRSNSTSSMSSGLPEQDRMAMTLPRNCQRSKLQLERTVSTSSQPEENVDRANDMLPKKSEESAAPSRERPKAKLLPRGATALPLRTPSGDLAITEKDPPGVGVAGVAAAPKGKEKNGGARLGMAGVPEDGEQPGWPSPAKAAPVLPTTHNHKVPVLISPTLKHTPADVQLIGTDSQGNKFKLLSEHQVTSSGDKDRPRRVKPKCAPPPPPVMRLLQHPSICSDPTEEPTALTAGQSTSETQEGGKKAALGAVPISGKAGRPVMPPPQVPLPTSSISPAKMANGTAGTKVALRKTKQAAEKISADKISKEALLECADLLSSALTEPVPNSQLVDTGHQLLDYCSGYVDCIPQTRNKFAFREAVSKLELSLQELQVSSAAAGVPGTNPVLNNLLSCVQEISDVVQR

[2] = target: Aurora kinase C (Homo sapiens) (UniProt Q9UQB9); test: Inhibition of recombinant human Aurora C (35 to end residues) assessed as residual activity at 1 uM using AKRRRLSSLRA as substrate incubated for 40 mins in presence of [gamma-33ATP] by scintillation counting based radiometry assay relative to control
Aurora kinase C (Homo sapiens), sequence (Q9UQB9 whole entry): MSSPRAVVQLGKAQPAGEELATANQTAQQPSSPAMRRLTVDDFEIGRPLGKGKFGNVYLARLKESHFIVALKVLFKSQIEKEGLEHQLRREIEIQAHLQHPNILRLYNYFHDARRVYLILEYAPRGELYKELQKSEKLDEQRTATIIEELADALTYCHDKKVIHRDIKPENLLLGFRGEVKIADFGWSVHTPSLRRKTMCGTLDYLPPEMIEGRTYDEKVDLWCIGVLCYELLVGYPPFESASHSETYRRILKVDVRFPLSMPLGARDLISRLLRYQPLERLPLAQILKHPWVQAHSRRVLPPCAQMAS

[3] = target: Calcium/calmodulin-dependent protein kinase type II subunit alpha (Homo sapiens) (UniProt Q9UQM7); test: Inhibition of recombinant full length human CaMK2alpha assessed as residual activity at 1 uM using KKLNRTLSFAEPG as substrate incubated for 40 mins in presence of [gamma-33ATP] by scintillation counting based radiometry assay relative to control
[4] = tested on: Serine/threonine-protein kinase Chk2 (Homo sapiens), O96017 [I157T]; test: Inhibition of recombinant human CHK2 I157T mutant (5 to end residues) assessed as residual activity at 1 uM using KKKVSRSGLYRSPSMPENLNRPR as substrate incubated for 40 mins in presence of [gamma-33ATP] by scintillation counting based radiometry assay relative to control
Serine/threonine-protein kinase Chk2 (Homo sapiens), O96017 [I157T], sequence (O96017 whole entry I157T): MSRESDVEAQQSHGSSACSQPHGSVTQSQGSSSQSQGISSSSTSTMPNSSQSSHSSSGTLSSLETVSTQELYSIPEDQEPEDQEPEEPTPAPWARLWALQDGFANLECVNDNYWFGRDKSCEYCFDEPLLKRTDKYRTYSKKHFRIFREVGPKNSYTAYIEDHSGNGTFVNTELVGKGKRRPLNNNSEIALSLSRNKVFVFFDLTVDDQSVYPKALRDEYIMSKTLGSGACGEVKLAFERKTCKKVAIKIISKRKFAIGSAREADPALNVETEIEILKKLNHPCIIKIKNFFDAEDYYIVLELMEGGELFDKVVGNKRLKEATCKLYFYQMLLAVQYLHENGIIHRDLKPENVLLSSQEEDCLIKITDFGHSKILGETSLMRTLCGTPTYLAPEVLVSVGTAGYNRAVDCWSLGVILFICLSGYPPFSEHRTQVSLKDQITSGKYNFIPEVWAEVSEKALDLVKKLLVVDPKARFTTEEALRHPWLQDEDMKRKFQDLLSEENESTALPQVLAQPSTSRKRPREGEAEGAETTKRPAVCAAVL

[5] = tested on: Epidermal growth factor receptor (Homo sapiens), P00533 [L858R,T790M]; test: Inhibition of recombinant human EGFR T790M/L858R mutant (696 to end residues) assessed as residual activity at 1 uM using poly(Glu, Tyr) 4:1 as substrate at 40 mins in presence of [gamma-33ATP] by scintillation counting based radiometry assay relative to control
[6] = species on record: Homo sapiens; test: Inhibition of recombinant human EphB2 A848S/K918E mutant (560 to end residues) assessed as residual activity at 1 uM using poly(Glu, Tyr) 4:1 as substrate at 40 mins in presence of [gamma-33ATP] by scintillation counting based radiometry assay relative to control
[7] = tested on: Receptor-type tyrosine-protein kinase FLT3 (Homo sapiens), P36888 [D835Y]; test: Inhibition of recombinant human FLT3 D835Y mutant (564 to end residues) assessed as residual activity at 1 uM using EAIYAAPFAKKK as substrate at 40 mins in presence of [gamma-33ATP] by scintillation counting based radiometry assay relative to control
[8] = tested on: Homeodomain-interacting protein kinase 2 (Homo sapiens), Q9H2X6 [UNDEFINED MUTATION]; test: Inhibition of human HIPK2 I471N mutant (165 to 564 residues) assessed as residual activity at 1 uM using myelin basic protein as substrate after 40 mins by [gamma-33ATP] radiometric assay relative to control
Homeodomain-interacting protein kinase 2 (Homo sapiens), Q9H2X6 [UNDEFINED MUTATION], sequence (Q9H2X6 whole entry, looked up, stated change not applied, the tested form may be a part): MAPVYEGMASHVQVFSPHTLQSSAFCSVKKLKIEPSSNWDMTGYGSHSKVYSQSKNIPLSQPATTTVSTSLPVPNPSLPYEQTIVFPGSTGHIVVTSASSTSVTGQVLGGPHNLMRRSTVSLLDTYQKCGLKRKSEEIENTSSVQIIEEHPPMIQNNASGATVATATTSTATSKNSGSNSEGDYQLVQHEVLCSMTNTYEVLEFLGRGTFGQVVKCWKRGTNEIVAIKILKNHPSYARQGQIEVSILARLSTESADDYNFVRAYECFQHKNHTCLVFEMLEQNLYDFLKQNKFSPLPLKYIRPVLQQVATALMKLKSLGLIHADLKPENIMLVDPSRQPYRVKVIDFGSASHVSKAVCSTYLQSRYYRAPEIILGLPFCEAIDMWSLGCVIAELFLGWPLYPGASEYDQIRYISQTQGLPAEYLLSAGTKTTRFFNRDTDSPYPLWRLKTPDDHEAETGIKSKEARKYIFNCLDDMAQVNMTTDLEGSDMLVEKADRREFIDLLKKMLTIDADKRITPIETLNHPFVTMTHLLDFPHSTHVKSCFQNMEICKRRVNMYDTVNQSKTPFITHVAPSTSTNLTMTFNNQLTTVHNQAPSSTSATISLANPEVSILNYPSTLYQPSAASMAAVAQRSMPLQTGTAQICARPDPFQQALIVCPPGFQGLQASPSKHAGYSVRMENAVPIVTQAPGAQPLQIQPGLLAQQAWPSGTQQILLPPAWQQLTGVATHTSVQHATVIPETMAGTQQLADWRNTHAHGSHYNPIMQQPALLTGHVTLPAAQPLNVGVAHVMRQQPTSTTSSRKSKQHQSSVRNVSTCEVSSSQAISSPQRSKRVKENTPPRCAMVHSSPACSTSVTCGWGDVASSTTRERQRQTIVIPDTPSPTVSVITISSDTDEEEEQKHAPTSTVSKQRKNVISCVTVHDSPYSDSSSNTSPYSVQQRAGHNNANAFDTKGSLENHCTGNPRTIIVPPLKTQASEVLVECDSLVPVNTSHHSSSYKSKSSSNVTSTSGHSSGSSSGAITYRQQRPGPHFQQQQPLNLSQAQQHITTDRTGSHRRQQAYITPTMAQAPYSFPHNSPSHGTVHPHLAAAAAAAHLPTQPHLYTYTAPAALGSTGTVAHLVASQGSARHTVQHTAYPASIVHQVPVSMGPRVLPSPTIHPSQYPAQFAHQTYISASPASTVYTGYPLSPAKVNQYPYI

[9] = target: Serine/threonine-protein kinase/endoribonuclease IRE1 (Homo sapiens) (UniProt O75460); test: Inhibition of human IRE1 activated (465 to end residues) assessed as residual activity at 1 uM using myelin basic protein as substrate after 40 mins by [gamma-33ATP] radiometric assay relative to control
[10] = tested on: Hepatocyte growth factor receptor (Homo sapiens), P08581 [Y1230H]; test: Inhibition of recombinant human MET A1209G/V1290L/Y1248H mutant (974 to end residues) assessed as residual activity at 1 uM using KKKGQEEEYVFIE as substrate incubated for 40 mins in presence of [gamma-33ATP by scintillation counting based radiometry assay relative to control
[11] = target: Myosin light chain kinase, smooth muscle (Homo sapiens) (UniProt Q15746); test: Inhibition of recombinant human MLCK (1425 to 1771 residues) assessed as residual activity at 1 uM […] incubated for 40 mins in presence of [gamma-33ATP by scintillation counting based radiometry assay relative to control
[12] = target: SRSF protein kinase 3 (Homo sapiens) (UniProt Q9UPE1); test: Inhibition of recombinant full-length human MSSK1 assessed as residual activity at 1 uM using ERMRPRKRQGSVRRRV as substrate measured after 40 mins in presence of [gamma33P]ATP by scintillation counting method relative to control
[13] = target: Serine/threonine-protein kinase PAK 1 (Homo sapiens) (UniProt Q13153); test: Inhibition of recombinant human PAK1 (150 to end residues) assessed as residual activity at 1 uM using RRRLSFAEPG as substrate measured after 40 mins in presence of [gamma33P]ATP by scintillation counting method relative to control
[14] = tested on: Phosphorylase b kinase gamma catalytic chain, liver/testis isoform (Homo sapiens), P15735 [F290L]; test: Inhibition of recombinant human PhKgamma2 F290L mutant (1 to 301 residues) assessed as residual activity at 1 uM using KKLNRTLSFAEPG as substrate measured after 40 mins in presence of [gamma33P]ATP by scintillation counting method relative to control
[15] = target: cGMP-dependent protein kinase 2 (Homo sapiens) (UniProt Q13237); test: Inhibition of recombinant full-length human PRKG2 assessed as residual activity at 1 uM using KKLRRTLSFAEPG as substrate measured after 40 mins in presence of [gamma33P]ATP by scintillation counting method relative to control
[16] = tested on: Serine/threonine-protein kinase N1 (Homo sapiens), Q16512 [V901I]; test: Inhibition of recombinant human PRK1 V901I mutant (498 to end residues) assessed as residual activity at 1 uM using KKLNRTLSFAEPG as substrate measured after 40 mins in presence of [gamma33P]ATP by scintillation counting method relative to control
[17] = target: STE20-like serine/threonine-protein kinase (Homo sapiens) (UniProt Q9H2G2); test: Inhibition of human SLK (1 to 373 residues) assessed as residual activity at 1 uM using RLGRDKYKTLRQIRQ as substrate measured after 40 mins in presence of [gamma33P]ATP by scintillation counting method relative to control
STE20-like serine/threonine-protein kinase (Homo sapiens), sequence (Q9H2G2 whole entry, looked up, the tested form may be a part): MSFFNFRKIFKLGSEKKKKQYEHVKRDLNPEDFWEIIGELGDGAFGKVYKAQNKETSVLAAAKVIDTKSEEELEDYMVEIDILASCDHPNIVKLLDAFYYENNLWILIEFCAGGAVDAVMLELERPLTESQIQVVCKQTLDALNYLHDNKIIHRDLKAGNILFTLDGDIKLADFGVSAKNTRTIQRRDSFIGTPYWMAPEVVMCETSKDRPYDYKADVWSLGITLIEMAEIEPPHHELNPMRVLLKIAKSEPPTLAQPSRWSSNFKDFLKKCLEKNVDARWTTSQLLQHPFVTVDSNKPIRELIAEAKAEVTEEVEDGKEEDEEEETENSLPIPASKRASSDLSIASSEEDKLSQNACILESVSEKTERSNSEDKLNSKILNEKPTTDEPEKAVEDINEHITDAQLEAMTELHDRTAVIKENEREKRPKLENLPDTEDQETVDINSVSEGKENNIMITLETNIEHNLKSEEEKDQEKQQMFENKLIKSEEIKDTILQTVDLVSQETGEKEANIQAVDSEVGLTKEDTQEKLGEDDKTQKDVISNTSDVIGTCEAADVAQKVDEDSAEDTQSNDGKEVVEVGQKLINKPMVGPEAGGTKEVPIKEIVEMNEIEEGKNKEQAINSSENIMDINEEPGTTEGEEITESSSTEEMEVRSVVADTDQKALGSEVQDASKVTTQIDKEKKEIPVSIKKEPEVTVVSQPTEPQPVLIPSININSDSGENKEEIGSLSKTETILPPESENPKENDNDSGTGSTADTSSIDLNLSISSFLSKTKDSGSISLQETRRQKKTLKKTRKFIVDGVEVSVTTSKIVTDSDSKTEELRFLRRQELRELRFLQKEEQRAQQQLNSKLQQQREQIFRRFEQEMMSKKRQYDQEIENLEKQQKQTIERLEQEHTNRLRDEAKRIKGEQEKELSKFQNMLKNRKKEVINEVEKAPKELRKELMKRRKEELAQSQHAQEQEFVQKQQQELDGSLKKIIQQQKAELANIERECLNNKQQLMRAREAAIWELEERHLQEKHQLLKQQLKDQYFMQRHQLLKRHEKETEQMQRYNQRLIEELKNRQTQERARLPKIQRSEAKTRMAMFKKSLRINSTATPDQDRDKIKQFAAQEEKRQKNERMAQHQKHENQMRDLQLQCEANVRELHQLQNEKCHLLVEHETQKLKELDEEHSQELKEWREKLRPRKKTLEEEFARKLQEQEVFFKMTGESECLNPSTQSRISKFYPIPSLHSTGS

[18] = target: Serine/threonine-protein kinase VRK2 (Homo sapiens) (UniProt Q86Y07); test: Inhibition of human VRK2 (1 to 336 residues) assessed as residual activity at 1 uM using casein as substrate measured after 40 mins in presence of [gamma33P]ATP by scintillation counting method relative to control
Serine/threonine-protein kinase VRK2 (Homo sapiens), sequence (Q86Y07 whole entry, the tested form may be a part): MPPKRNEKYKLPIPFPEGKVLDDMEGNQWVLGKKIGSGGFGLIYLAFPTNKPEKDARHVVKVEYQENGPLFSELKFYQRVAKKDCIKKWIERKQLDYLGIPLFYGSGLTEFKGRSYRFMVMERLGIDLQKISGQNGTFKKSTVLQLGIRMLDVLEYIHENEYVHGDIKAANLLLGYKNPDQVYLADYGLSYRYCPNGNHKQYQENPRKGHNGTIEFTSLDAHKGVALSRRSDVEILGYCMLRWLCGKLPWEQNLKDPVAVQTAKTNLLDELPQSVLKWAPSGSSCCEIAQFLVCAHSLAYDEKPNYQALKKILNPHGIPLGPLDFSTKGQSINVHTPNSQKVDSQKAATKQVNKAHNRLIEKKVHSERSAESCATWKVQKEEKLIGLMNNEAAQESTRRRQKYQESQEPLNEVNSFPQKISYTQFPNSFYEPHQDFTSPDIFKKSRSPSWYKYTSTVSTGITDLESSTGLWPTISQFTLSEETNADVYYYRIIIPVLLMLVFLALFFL

[19] = target: Phosphatidylinositol 3-kinase C2 domain-containing subunit gamma (Homo sapiens) (UniProt O75747); test: Inhibition of recombinant human PI3KC2gamma (468 to 1203 residues) at 1 uM assessed as residual activity at 1 uM using phosphatidylinositol as substrate measured after 40 mins by HTRF assay
[20] = target: Phosphatidylinositol 4-phosphate 5-kinase type-1 gamma (Homo sapiens) (UniProt O60331); test: Inhibition of recombinant full-length human PIP5K1gamma at 1 uM assessed as residual activity at 1 uM using phosphatidylinositol 4-phosphate as substrate measured after 40 mins by HTRF assay

Question: Which results are given for `N=C1NC(=O)/C(=C\c2ccc(-c3cccc([N+](=O)[O-])c3)o2)S1`?
Answer: Activity [1]: 87%; Activity [2]: 109%; Activity [3]: 80%; Activity [4]: 85%; Activity [5]: 89%; Activity [6]: 96%; Activity [7]: 84%; Activity [8]: 1%; Activity [9]: 79%; Activity [10]: 106%; Activity [11]: 37%; Activity [12]: 96%; Activity [13]: 104%; Activity [14]: 107%; Activity [15]: 51%; Activity [16]: 90%; Activity [17]: 95%; Activity [18]: 101%; Activity [19]: 90%; Activity [20]: 101%

Question: What does the source list for `C=CCOC(=O)c1cc(-c2ccc(/C=C3/NC(=S)NC3=O)o2)ccc1Cl`?
Answer: Activity [1]: 107%; Activity [2]: 104%; Activity [3]: 62%; Activity [4]: 91%; Activity [5]: 97%; Activity [6]: 140%; Activity [7]: 101%; Activity [8]: 5%; Activity [9]: 91%; Activity [10]: 116%; Activity [11]: 89%; Activity [12]: 99%; Activity [13]: 100%; Activity [14]: 104%; Activity [15]: 94%; Activity [16]: 98%; Activity [17]: 87%; Activity [18]: 100%; Activity [19]: 77%; Activity [20]: 100%
